Experimental findings from PMC8697381 (ACS Omega, 2021) are described below.

The subject of the experiment is A431 human skin squamous cell carcinoma cells. Briefly: In vitro cellular uptake quantified by flow cytometry. It counts as cell-based. Particulars: all concentrations (0.2–25 μM), 90 min, ratio of Cf-positive cells and mean fluorescence intensity. A general note: A flow cytometer gives signals particle by particle.

Where a SMILES comes first, the peptide text is derived from it.

`N=C(N)NCCC[C@H](NC(=O)[C@@H]1CCCN1C(=O)[C@H](CCC(N)=O)NC(=O)[C@H](CCCCN)NC(=O)[C@H](CC(=O)O)NC(=O)[C@@H]1CCCN1C(=O)[C@H](Cc1ccccc1)NC(=O)CNC(=O)[C@H](CCC(=O)O)NC(=O)[C@H](Cc1ccccc1)NC(=O)[C@@H](N)Cc1ccccc1)C(=O)N[C@@H](CCCCN)C(=O)N[C@@H](CCCCN)C(N)=O` [Peptide S100] (H-FFEGFPDKQPRKK-NH2): the “cellular uptake rate, comparison between peptides” value was “lowest cellular uptake rate”.
